Reference: patent publication US20250177351A1, “ISOINDOLINE COMPOSITIONS AND METHODS FOR TREATING NEURODEGENERATIVE DISEASE” (Cognition Therapeutics, Inc., priority 2022, published 2025)

Experiments:
CYP isoenzymes = assay: Drug interaction studies
[1] = Phase 1 MAD study: safety assessments; format: in vivo, human
Experimental: In Part B, healthy young subjects in each cohort received the same dose once daily for 14 days after overnight fasting. Cohort dosing started at 280 mg, followed by 560 mg and 840 mg in subsequent cohorts. In each cohort, eight subjects received drug and two received placebo. A fourth cohort of healthy elderly subjects (≥65 years old) received a 560 mg dose vs. placebo daily for 14 days (seven active, two placebo).
Subjects were dosed in the morning with 240 mL of water after an 8-hour fast, and remained in a semi-reclined position for 1 hour and fasting for 2 hours post-administration, except for the fed cohort in Part A. Subjects in each MAD cohort were confined to the clinical facility from check-in on Day 0 until the pharmacokinetic sample was collected on Day 16, 48 hours after administration of the last dose on Day 14. Subjects returned to the clinical facility for follow-up visits on Days 24 and 35.
(§1) Safety variables, including incidence of adverse events (AEs), vital signs, clinical laboratory findings, 12-lead electrocardiographs (ECGs), physical examination, and affective and cognitive measures (Part B only), were summarized for all subjects who received study drug.

[2] = Phase 1 SAD study: safety assessments; format: in vivo, human
Experimental: Part A was a single ascending dose cohort study in which healthy, young subjects (less than 65 years old) received one dose of study drug in the morning after an overnight fast. Cohort dosing started at 10 mg and increased to 30 mg, 90 mg, 180 mg, 450 mg, and 1120 mg in subsequent cohorts. Six drug-treated and two placebo-treated subjects were randomized in each cohort. A seventh cohort of six subjects each received a single 90 mg dose of drug 30 min. after a meal. Following completion of all safety assessments and blood draws for PK analyses, subjects were discharged on Day 3.
as §1

[3] = tested on: DIV21 hippocampal/cortical cultures with Aβ oligomers; assay: Neurogranin expression study in vitro; format: cell-based; conditions: Aβ42 oligomers 500 nM, 1 hr, followed by CT1812 4.8 nM, 24 hr
Experimental: Neurons were fixed in 3.75% formaldehyde and stained with full-length neurogranin (Abcam catalogue #ab23570, used in combination with novel Ng7 to detect full length neurogranin inAlzheimer's disease patient brain IP; Kvartsberg et al. 2015 Blennow lab), MAP2 (Millipore), and 4G8 (Biolegend) antibodies. Imaging was performed on Cellomics VX automated microscope with a 20×, 0.75 NA objective and analyzed using a compartmental analysis algorithm to measure staining in the nucleus versus cytoplasm.

[4] = Phase 1 MAD study: CT1812 concentration in CSF; format: in vivo, human; conditions: humans, from CSF levels
Source text: CT1812 was quantitated in CSF using a validated LC-MS/MS method.

CSF proteins = assay: CSF proteomics by tandem-mass tag mass spectrometry (TMT-MS), SPARC trial; format: in vivo, human
Source text: A stringent filter was used to reduce noise. […] Samples were acquired from placebo and the drug and interventional cohort. Using biomarker differential-expression analysis, proteins that were differentially expressed between drug and placebo cohorts were identified (p<0.05).

[5] = MAD, age ≤ 64 years, 280 mg (n = 8)
[6] = MAD, age ≤ 64 years, 560 mg (n = 8)
[7] = MAD, age ≤ 64 years, 840 mg (n = 8)
[8] = MAD, age ≥ 65 years, 560 mg (n = 7)
[9] = AD patients treated at least 6 months, p<0.05

## CC(C)(C)Oc1cc(CCC(C)(C)N2Cc3ccc(S(C)(=O)=O)cc3C2)ccc1O [CT1812]
CYP isoenzymes
  interactions with CYP isoenzymes: minor interactions
[1]; 280 mg to 840 mg QD for 14 days, healthy subjects
  tolerability: well tolerated
[1]; MAD
  ECG: No ECG parameters or changes were assessed as clinically significant
[1]; MAD Total Active (n = 31)
  Number of Subjects with TEAE: Back pain: 2
  Number of Subjects with TEAE: Catheter site phlebitis: 2
  Number of Subjects with TEAE: Dizziness: 3
  Number of Subjects with TEAE: Dyspepsia: 3
  Number of Subjects with TEAE: Headache: 10
  Number of Subjects with TEAE: Nausea: 2
  Number of Subjects with TEAE: Procedural pain: 6
  Number of Subjects with TEAE: Upper respiratory tract infection: 8
  Number of Subjects with TEAE: Vomiting: 2
  Number of Subjects with at least one Treatment-Emergent AE: All TEAES: 25
[1]; [5]
  Number of Subjects with TEAE: Dizziness: 1
  Number of Subjects with TEAE: Dyspepsia: 1
  Number of Subjects with TEAE: Headache: 2
  Number of Subjects with TEAE: Nausea: 1
  Number of Subjects with TEAE: Upper respiratory tract infection: 5
  Number of Subjects with at least one Treatment-Emergent AE: All TEAES: 7
[1]; [6]
  Number of Subjects with TEAE: Catheter site phlebitis: 1
  Number of Subjects with TEAE: Dyspepsia: 1
  Number of Subjects with TEAE: Headache: 1
  Number of Subjects with TEAE: Procedural pain: 4
  Number of Subjects with TEAE: Upper respiratory tract infection: 1
  Number of Subjects with at least one Treatment-Emergent AE: All TEAES: 7
[1]; [7]
  Number of Subjects with TEAE: Back pain: 1
  Number of Subjects with TEAE: Catheter site phlebitis: 1
  Number of Subjects with TEAE: Dizziness: 1
  Number of Subjects with TEAE: Dyspepsia: 1
  Number of Subjects with TEAE: Headache: 4
  Number of Subjects with TEAE: Nausea: 1
  Number of Subjects with TEAE: Procedural pain: 2
  Number of Subjects with TEAE: Upper respiratory tract infection: 2
  Number of Subjects with TEAE: Vomiting: 2
  Number of Subjects with at least one Treatment-Emergent AE: All TEAES: 6
[1]; [8]
  Number of Subjects with TEAE: Back pain: 1
  Number of Subjects with TEAE: Dizziness: 1
  Number of Subjects with TEAE: Headache: 3
  Number of Subjects with at least one Treatment-Emergent AE: All TEAES: 5
[1]; MAD, subject on 840 mg, respiratory picornavirus infection deemed unrelated to study treatment
  serious AE (SAE): One
[1]; MAD, improvement after discontinuing CT1812
  subjects developing a rash: One
[1]; MAD, including one subject on placebo
  subjects with increase in liver function tests below 3× the upper limit of normal: Four
[2]; SAD
  ECG: No ECG parameters or changes were assessed as clinically significant
  clinical laboratory results: no subjects with clinically significant laboratory results
[2]; SAD Total Active (n = 42)
  Number of Subjects with Treatment-Emergent AE: All TEAEs: 18
  Number of Subjects with Treatment-Emergent AE: Headache: 6
  Number of Subjects with Treatment-Emergent AE: Nausea: 6
[2]; SAD fasted 10 mg (n = 6)
  Number of Subjects with Treatment-Emergent AE: All TEAEs: 2
[2]; SAD fasted 30 mg (n = 6)
  Number of Subjects with Treatment-Emergent AE: All TEAEs: 4
  Number of Subjects with Treatment-Emergent AE: Headache: 3
  Number of Subjects with Treatment-Emergent AE: Nausea: 1
[2]; SAD fasted 180 mg (n = 6)
  Number of Subjects with Treatment-Emergent AE: All TEAEs: 2
[2]; SAD fasted 450 mg (n = 6)
  Number of Subjects with Treatment-Emergent AE: All TEAEs: 4
  Number of Subjects with Treatment-Emergent AE: Headache: 1
  Number of Subjects with Treatment-Emergent AE: Nausea: 2
[2]; SAD fasted 1120 mg (n = 6)
  Number of Subjects with Treatment-Emergent AE: All TEAEs: 4
  Number of Subjects with Treatment-Emergent AE: Headache: 1
  Number of Subjects with Treatment-Emergent AE: Nausea: 3
[2]; SAD fed 90 mg (n = 6)
  Number of Subjects with Treatment-Emergent AE: All TEAEs: 2
  Number of Subjects with Treatment-Emergent AE: Headache: 1
[2]; SAD, 10 mg to 1120 mg
  deaths or serious adverse events: no deaths or other serious adverse events
[2]; single dose 10 mg to 1120 mg, healthy subjects
  tolerability: well tolerated
[3]
  full length neurogranin protein expression in neurons: restores neurogranin expression
[4]
  blood-brain barrier penetration: penetrates the blood-brain barrier
CSF proteins; [9]
  CHI3L1 (YKL-40) in CSF vs placebo: significantly decreased
  CLU (clusterin) in CSF vs placebo: significantly decreased
  SMOC1 in CSF vs placebo: significantly decreased
CSF proteins; N=18, p<0.05
  number of significantly abundant proteins in CSF, CT1812 vs placebo: 326
